Data: US20150315241A1, “Antibiotic Peptides” (priority 2007, published 2015)
≈ marks a conversion by molar mass, not a printed value. Where a SMILES comes first, the peptide text is derived from it. [ ]: non-standard residue; d: D form. Cha = N[C@@H](CC1CCCCC1)C(=O)O; NMeL = CN[C@@H](CC(C)C)C(=O)O; Orn = NCCC[C@H](N)C(=O)O

Assays:
E. coli 45849 = assay: Growth inhibition assay (MIC); assay type: cell-based, Escherichia coli
Procedure: (§1) The minimal inhibition concentrations (MIC) of the apidaecin-derived peptides and peptide-derivatives were determined by a growth inhibition assay using a serial peptide dilution in sterilized round-bottom 96-well plates (polystyrene, U-bottom, Greiner Bio-One GmbH) with a final volume of 100 μL per well. The bacteria, e.g., E. coli BL21 A1, were grown in nutrient broth (NB, Carl Roth GmbH+Co. KG, Karlsruhe, Germany) at 37° C. over night. To each well of the 96-well plate, 50 μL of the overnight culture adjusted to 5×10^6 CFU/mL in 1% TSB were added. Lyophilized peptides and peptidomimetics were dissolved in 1% TSB (tryptic soy broth) or water to give a final concentration of 250 μg/mL. Fifty μL of the peptide or peptidomimetics solution were added to the first well of a row on the plate and mixed. Fifty μL of the first well containing the peptide solution were transferred to the second well, mixed and again 50 μL transferred to the next well and so on. Thereby, a two-fold dilution series was obtained starting at 250 μg/mL in the first well down to 120 ng/mL in the 12th well of a row giving a final peptide or peptidomimetics concentration from 125 μg/mL (well 1) to 60 ng/mL (well 12). Plates were incubated at 37° C. for 20 hrs. The absorbance was measured at 595 nm using a TECAN micro plate spectrophotometer (Tecan, Germany). All peptides and peptidomimetics were measured in triplicates. Sterilized water was used as a negative control.
(§2) The following multidrug resistant bacteria strains were tested: • Eschericha coli 45849 and D31, • Klebsiella pneumoniae 123132 and K6, • Salmonella typhi S5 and Salmonella enterica subsp. enterica serovar Typhimurium (ATCC 700408), • Rhizobium radiobacter (ATCC 15955 deposited as Agrobacterium tumefaciens).

S. typhi S5 = assay type: cell-based, Salmonella typhi; settings: S5, 20 h
Procedure: as §1, §2

E. coli D31 = assay type: cell-based, Escherichia coli; settings: D31, 20 h
Procedure: as §1, §2

K. Pneumonia 123132 = assay: Growth inhibition assay (MIC); assay type: cell-based, Klebsiella pneumoniae
Procedure: as §1, §2

[1] = test system: K. Pneumonia K6, ATCC 700603; assay: Growth inhibition assay (MIC); assay type: cell-based, Klebsiella pneumoniae; settings: multidrug resistant strain; 1% TSB, 37° C., 20 hrs
Procedure: as §1, §2

[2] = test system: S. enterica subsp. Enterica serovar. typhi G10215 ATCC 700408; assay type: cell-based, Salmonella enterica; settings: ATCC 700408, 20 h
Procedure: as §1, §2

[3] = test system: R. radiobatter ATCC 15955; assay: Growth inhibition assay (MIC); assay type: cell-based, Rhizobium radiobacter
Procedure: as §1, §2

[4] = multidrug resistant strain, 1% TSB, 37° C., 20 hrs

Row | Structure (SMILES) | MIC E. coli 45849 (E. coli 45849; 45849, 20 h) | MIC S. typhi S5 (S. typhi S5) | MIC E. coli D31 (E. coli D31) | MIC K. Pneumonia 123132 (K. Pneumonia 123132; 20 h) | MIC K. Pneumonia K6, ATCC 700603 [1] | MIC S. enterica subsp. Enterica serovar. typhi G10215 ATCC 700408 [2] | MIC R. radiobatter ATCC 15955 ([3]; ATCC 15955, 20 h) | MIC E. coli 45849 (E. coli 45849; [4]) | MIC K. Pneumonia 123132 (K. Pneumonia 123132; [4]) | MIC R. radiobatter ATCC 15955 [3, 4]
1 | CC[C@H](C)[C@H](NC(=O)[C@H](Cc1ccc(O)cc1)NC(=O)[C@@H](NC(=O)[C@@H]1CCCN1C(=O)[C@H](CCCNC(=N)N)NC(=O)[C@H](CC(N)=O)NC(=O)[C@H](CC(N)=O)NC(=O)[C@@H](N)CCCN)C(C)C)C(=O)N1CCC[C@H]1C(=O)N[C@@H](CCCN)C(=O)N1CCC[C@H]1C(=O)N[C@@H](CCCNC(=N)N)C(=O)N1CCC[C@H]1C(=O)N1CCC[C@H]1C(=O)N[C@@H](Cc1c[nH]cn1)C(=O)N1CCC[C@H]1C(=O)N[C@@H](CCCNC(=N)N)C(=O)N[C@@H](CC1CCCCC1)C(N)=O [compound 35] (H-[Orn]NNRPVYIP[Orn]PRPPHPR[Cha]-NH2) | 16 µg/mL (≈ 7.3 µM) | 16 µg/mL (≈ 7.3 µM) | 8 µg/mL (≈ 3.65 µM) | 32 µg/mL (≈ 14.6 µM) | 16 µg/mL (≈ 7.3 µM) | 4 to 8 µg/mL | 2.6 µg/mL (≈ 1.19 µM) | – | – | –
2 | CC[C@H](C)[C@H](NC(=O)[C@H](Cc1ccc(O)cc1)NC(=O)[C@@H](NC(=O)[C@@H]1CCCN1C(=O)[C@H](CCCNC(=N)N)NC(=O)[C@H](CC(N)=O)NC(=O)[C@H](CC(N)=O)NC(=O)[C@H](CCCN)NC(C)=O)C(C)C)C(=O)N1CCC[C@H]1C(=O)N[C@@H](CCCNC(=N)N)C(=O)N1CCC[C@H]1C(=O)N[C@@H](CCCNC(=N)N)C(=O)N1CCC[C@H]1C(=O)N1CCC[C@H]1C(=O)N[C@@H](Cc1c[nH]cn1)C(=O)N1CCC[C@H]1C(=O)N[C@@H](CCCNC(=N)N)C(=O)N(C)[C@@H](CC(C)C)C(N)=O [compound 36] (Ac-[Orn]NNRPVYIPRPRPPHPR[NMeL]-NH2) | – | 16 to 32 µg/mL | 8 µg/mL (≈ 3.56 µM) | – | 64 to 128 µg/mL | 4 to 8 µg/mL | – | 4 µg/mL (≈ 1.78 µM) | 32 µg/mL (≈ 14.2 µM) | 1.3 µg/mL (≈ 0.578 µM)
3 | CC[C@H](C)[C@H](NC(=O)[C@H](Cc1ccc(O)cc1)NC(=O)[C@@H](NC(=O)[C@@H]1CCCN1C(=O)[C@H](CCCNC(=N)N)NC(=O)[C@H](CC(N)=O)NC(=O)[C@H](CC(N)=O)NC(=O)CN)C(C)C)C(=O)N1CCC[C@H]1C(=O)N[C@@H](CCCNC(=N)N)C(=O)N1CCC[C@H]1C(=O)N[C@@H](CCCNC(=N)N)C(=O)N1CCC[C@H]1C(=O)N1CCC[C@H]1C(=O)N[C@@H](Cc1c[nH]cn1)C(=O)N1CCC[C@H]1C(=O)N[C@@H](CCCNC(=N)N)C(=O)N[C@@H](CC1CCCCC1)C(N)=O [compound 37] (H-GNNRPVYIPRPRPPHPR[Cha]-NH2) | – | 16 µg/mL (≈ 7.35 µM) | 8 µg/mL (≈ 3.68 µM) | – | 32 µg/mL (≈ 14.7 µM) | 8 µg/mL (≈ 3.68 µM) | – | 16 µg/mL (≈ 7.35 µM) | 16 µg/mL (≈ 7.35 µM) | 10.5 µg/mL (≈ 4.83 µM)
4 | CC[C@H](C)[C@H](NC(=O)[C@H](Cc1ccc(O)cc1)NC(=O)[C@@H](NC(=O)[C@@H]1CCCN1C(=O)[C@H](CCCNC(=N)N)NC(=O)[C@H](CC(N)=O)NC(=O)[C@H](CC(N)=O)NC(=O)[C@H](CCCN)NC(C)=O)C(C)C)C(=O)N1CCC[C@H]1C(=O)N[C@@H](CCC(N)=O)C(=O)N1CCC[C@H]1C(=O)N[C@@H](CCCNC(=N)N)C(=O)N1CCC[C@H]1C(=O)N1CCC[C@H]1C(=O)N[C@@H](Cc1c[nH]cn1)C(=O)N1CCC[C@H]1C(=O)N[C@@H](CCCNC(=N)N)C(=O)N[C@@H](Cc1ccccc1)C(N)=O [compound 41] (Ac-[Orn]NNRPVYIPQPRPPHPRF-NH2) | – | 8 µg/mL (≈ 3.57 µM) | >128 µg/mL | – | 128 µg/mL (≈ 57.1 µM) | 8 µg/mL (≈ 3.57 µM) | – | 4 µg/mL (≈ 1.79 µM) | 32 µg/mL (≈ 14.3 µM) | 5.25 µg/mL (≈ 2.34 µM)
